Patent publication US20230085307A1, “PYRIDAZINONE COMPOUND AND HERBICIDE” (NISSAN CHEMICAL CORPORATION, priority 2019, published 2023)

What was measured:
[1] = test system: Chinese sprangletop; assay: Test Example 3: herbicidal effect by foliage application, Wagner pot (Table 18, symbol D); type: in vivo, chinese sprangletop (Leptochloa chinensis)
In short: (§1)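 Plants were sown in alluvial soil held under 0.1–0.5 cm standing water and grown 14 days in a greenhouse at 25–30 °C. An emulsifiable formulation, water-diluted to the set dose, was then sprayed onto the foliage, and effects were scored three weeks later using previously defined criteria.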

[2] = test system: false cleavers; assay: Test Example 5: herbicidal effect by foliage application, plastic box (Table 20, symbol Q); type: in vivo, false cleavers (Galium spurium); details: foliage application, 320 g/ha, evaluated three weeks after application
In short: (§2)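 Post-emergence foliar test in sterilized diluvial soil. Compound applied as water-diluted emulsion at a predetermined rate to 14-day-old plants; evaluation at three weeks.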

[3] = test system: chickweed; assay: Test Example 5: herbicidal effect by foliage application, plastic box (Table 20, symbol P); type: in vivo, common chickweed (Stellaria media); details: foliage application, 320 g/ha, evaluated three weeks after application
In short: as §2

[4] = test system: green foxtail; assay: Test Example 4: herbicidal effect by soil treatment (Table 19, symbol G); type: in vivo, green foxtail (Setaria viridis); details: amount of applied herbicide 320 g/ha
In short: (§3)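 Emulsion of test compound, water-diluted to predetermined amount, sprayed on soil after sowing (seed depth ~1.5 cm, sterilized diluvial soil). Greenhouse, 25–30° C. Effect graded at three weeks post-spray.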

[5] = test system: barnyard grass; assay: Test Example 3: herbicidal effect by foliage application, Wagner pot (Table 18, symbol H); type: in vivo, barnyard grass (Echinochloa crus-galli)
In short: as §1

[6] = test system: velvetleaf; assay: Test Example 5: herbicidal effect by foliage application, plastic box (Table 20, symbol M); type: in vivo, velvetleaf (Abutilon theophrasti); details: foliage application, 320 g/ha, evaluated three weeks after application
In short: as §2

[7] = test system: redroot pigweed; assay: Test Example 5: herbicidal effect by foliage application, plastic box (Table 20, symbol N); type: in vivo, redroot pigweed (Amaranthus retroflexus); details: foliage application, 320 g/ha, evaluated three weeks after application
In short: as §2

[8] = test system: redroot pigweed; assay: Test Example 4: herbicidal effect by soil treatment (Table 19, symbol N); type: in vivo, redroot pigweed (Amaranthus retroflexus); details: amount of applied herbicide 320 g/ha
In short: as §3

[9] = test system: windgrass; assay: Test Example 5: herbicidal effect by foliage application, plastic box (Table 20, symbol L); type: in vivo, windgrass (Apera spica-venti); details: foliage application, 320 g/ha, evaluated three weeks after application
In short: as §2

[10] = test system: blackgrass; assay: Test Example 5: herbicidal effect by foliage application, plastic box (Table 20, symbol J); type: in vivo, blackgrass (Alopecurus myosuroides); details: foliage application, 320 g/ha, evaluated three weeks after application
In short: as §2

[11] = test system: barnyard grass; assay: Test Example 5: herbicidal effect by foliage application, plastic box (Table 20, symbol H); type: in vivo, barnyard grass (Echinochloa crus-galli); details: foliage application, 320 g/ha, evaluated three weeks after application
In short: as §2

[12] = test system: wild oat; assay: Test Example 4: herbicidal effect by soil treatment (Table 19, symbol I); type: in vivo, wild oat (Avena fatua); details: amount of applied herbicide 320 g/ha
In short: as §3

[13] = test system: blackgrass; assay: Test Example 4: herbicidal effect by soil treatment (Table 19, symbol J); type: in vivo, blackgrass (Alopecurus myosuroides); details: amount of applied herbicide 320 g/ha
In short: as §3

[14] = test system: rice flat sedge; assay: Test Example 3: herbicidal effect by foliage application, Wagner pot (Table 18, symbol E); type: in vivo, rice flat sedge (Cyperus iria)
In short: as §1

[15] = test system: windgrass; assay: Test Example 4: herbicidal effect by soil treatment (Table 19, symbol L); type: in vivo, windgrass (Apera spica-venti); details: amount of applied herbicide 320 g/ha
In short: as §3

[16] = test system: false cleavers; assay: Test Example 4: herbicidal effect by soil treatment (Table 19, symbol Q); type: in vivo, false cleavers (Galium spurium); details: amount of applied herbicide 320 g/ha
In short: as §3

[17] = test system: barnyard grass; assay: Test Example 4: herbicidal effect by soil treatment (Table 19, symbol H); type: in vivo, barnyard grass (Echinochloa crus-galli); details: amount of applied herbicide 320 g/ha
In short: as §3

[18] = test system: velvetleaf; assay: Test Example 4: herbicidal effect by soil treatment (Table 19, symbol M); type: in vivo, velvetleaf (Abutilon theophrasti); details: amount of applied herbicide 320 g/ha
In short: as §3

[19] = test system: lambsquarters; assay: Test Example 4: herbicidal effect by soil treatment (Table 19, symbol O); type: in vivo, lambsquarters (Chenopodium album); details: amount of applied herbicide 320 g/ha
In short: as §3

[20] = test system: green foxtail; assay: Test Example 5: herbicidal effect by foliage application, plastic box (Table 20, symbol G); type: in vivo, green foxtail (Setaria viridis); details: foliage application, 320 g/ha, evaluated three weeks after application
In short: as §2

[21] = test system: Italian ryegrass; assay: Test Example 5: herbicidal effect by foliage application, plastic box (Table 20, symbol K); type: in vivo, Italian ryegrass (Lolium multiflorum); details: foliage application, 320 g/ha, evaluated three weeks after application
In short: as §2

[22] = test system: persian speedwell; assay: Test Example 4: herbicidal effect by soil treatment (Table 19, symbol R); type: in vivo, Persian speedwell (Veronica persica); details: amount of applied herbicide 320 g/ha
In short: as §3

[23] = test system: lambsquarters; assay: Test Example 5: herbicidal effect by foliage application, plastic box (Table 20, symbol O); type: in vivo, lambsquarters (Chenopodium album); details: foliage application, 320 g/ha, evaluated three weeks after application
In short: as §2

[24] = test system: Italian ryegrass; assay: Test Example 4: herbicidal effect by soil treatment (Table 19, symbol K); type: in vivo, Italian ryegrass (Lolium multiflorum); details: amount of applied herbicide 320 g/ha
In short: as §3

[25] = test system: persian speedwell; assay: Test Example 5: herbicidal effect by foliage application, plastic box (Table 20, symbol R); type: in vivo, Persian speedwell (Veronica persica); details: foliage application, 320 g/ha, evaluated three weeks after application
In short: as §2

[26] = test system: southern crabgrass; assay: Test Example 4: herbicidal effect by soil treatment (Table 19, symbol F); type: in vivo, southern crabgrass (Digitaria ciliaris); details: amount of applied herbicide 320 g/ha
In short: as §3

[27] = test system: chickweed; assay: Test Example 4: herbicidal effect by soil treatment (Table 19, symbol P); type: in vivo, common chickweed (Stellaria media); details: amount of applied herbicide 320 g/ha
In short: as §3

[28] = test system: southern crabgrass; assay: Test Example 5: herbicidal effect by foliage application, plastic box (Table 20, symbol F); type: in vivo, southern crabgrass (Digitaria ciliaris); details: foliage application, 320 g/ha, evaluated three weeks after application
In short: as §2

[29] = test system: wild oat; assay: Test Example 5: herbicidal effect by foliage application, plastic box (Table 20, symbol I); type: in vivo, wild oat (Avena fatua); details: foliage application, 320 g/ha, evaluated three weeks after application
In short: as §2

[30] = amount of applied herbicide 320 g/ha

Structure (SMILES)	herbicidal effect on Q: false cleavers [2]	herbicidal effect on P: chickweed [3]	G: green foxtail, herbicidal effect rating [4]	herbicidal effect on M: velvetleaf [6]	herbicidal effect on N: redroot pigweed [7]	N: redroot pigweed, herbicidal effect rating [8]	herbicidal effect on L: windgrass [9]	herbicidal effect on J: blackgrass [10]	herbicidal effect on H: barnyard grass [11]	I: wild oat, herbicidal effect rating [12]	J: blackgrass, herbicidal effect rating [13]	L: windgrass, herbicidal effect rating [15]	Q: false cleavers, herbicidal effect rating [16]	H: barnyard grass, herbicidal effect rating [17]	M: velvetleaf, herbicidal effect rating [18]	O: lambsquarters, herbicidal effect rating [19]	herbicidal effect on G: green foxtail [20]	herbicidal effect on K: Italian ryegrass [21]	R: persian speedwell, herbicidal effect rating [22]	herbicidal effect on O: lambsquarters [23]	also measured
CCOc1ccccc1-c1sc2ccc(Cl)cc2c1-c1c(O)c(C)nn(C)c1=O [2-105]	5 (Herbicidal rate of 90% or more (almost completely withered))	5 (Herbicidal rate of 90% or more (almost completely withered))	2 (Herbicidal rate of 20% or more and less than 40%)	5 (Herbicidal rate of 90% or more (almost completely withered))	5 (Herbicidal rate of 90% or more (almost completely withered))	5 (Herbicidal rate of 90% or more (almost completely withered))	0 (Herbicidal rate of 5% or less (almost no effect))	0 (Herbicidal rate of 5% or less (almost no effect))	0 (Herbicidal rate of 5% or less (almost no effect))	0 (Herbicidal rate of 5% or less (almost no effect))	0 (Herbicidal rate of 5% or less (almost no effect))	0 (Herbicidal rate of 5% or less (almost no effect))	4 (Herbicidal rate of 70% or more and less than 90%)	3 (Herbicidal rate of 40% or more and less than 70%)	3 (Herbicidal rate of 40% or more and less than 70%)	4 (Herbicidal rate of 70% or more and less than 90%)	0 (Herbicidal rate of 5% or less (almost no effect))	0 (Herbicidal rate of 5% or less (almost no effect))	3 (Herbicidal rate of 40% or more and less than 70%)	3 (Herbicidal rate of 40% or more and less than 70%)	herbicidal effect on D (Chinese sprangletop), rating 0-5 ([1]; 320 g/ha): 0 (Herbicidal rate of 5% or less (almost no effect)); herbicidal effect on H (barnyard grass), rating 0-5 ([5]; 320 g/ha): 4 (Herbicidal rate of 70% or more and less than 90%); herbicidal effect on E (rice flat sedge), rating 0-5 ([14]; 320 g/ha): 3 (Herbicidal rate of 40% or more and less than 70%); K: Italian ryegrass, herbicidal effect rating [24]: 0 (Herbicidal rate of 5% or less (almost no effect)); herbicidal effect on R: persian speedwell [25]: 5 (Herbicidal rate of 90% or more (almost completely withered)); F: southern crabgrass, herbicidal effect rating [26]: 3 (Herbicidal rate of 40% or more and less than 70%); P: chickweed, herbicidal effect rating [27]: 3 (Herbicidal rate of 40% or more and less than 70%); herbicidal effect on F: southern crabgrass [28]: 4 (Herbicidal rate of 70% or more and less than 90%); herbicidal effect on I: wild oat [29]: 1 (Herbicidal rate of 5% or more and less than 20%)
CCCC(=O)Oc1c(C)nn(C)c(=O)c1-c1c(-c2ccc(OC)c(OC)c2)sc2ccc(Cl)cc12 [2-124]	0 (Herbicidal rate of 5% or less (almost no effect))	2 (Herbicidal rate of 20% or more and less than 40%)	0 (Herbicidal rate of 5% or less (almost no effect))	1 (Herbicidal rate of 5% or more and less than 20%)	2 (Herbicidal rate of 20% or more and less than 40%)	0 (Herbicidal rate of 5% or less (almost no effect))	0 (Herbicidal rate of 5% or less (almost no effect))	0 (Herbicidal rate of 5% or less (almost no effect))	0 (Herbicidal rate of 5% or less (almost no effect))	0 (Herbicidal rate of 5% or less (almost no effect))	0 (Herbicidal rate of 5% or less (almost no effect))	0 (Herbicidal rate of 5% or less (almost no effect))	0 (Herbicidal rate of 5% or less (almost no effect))	0 (Herbicidal rate of 5% or less (almost no effect))	0 (Herbicidal rate of 5% or less (almost no effect))	3 (Herbicidal rate of 40% or more and less than 70%)	0 (Herbicidal rate of 5% or less (almost no effect))	0 (Herbicidal rate of 5% or less (almost no effect))	0 (Herbicidal rate of 5% or less (almost no effect))	0 (Herbicidal rate of 5% or less (almost no effect))	herbicidal effect on D: Chinese sprangletop [1, 30]: 1 (Herbicidal rate of 5% or more and less than 20%); herbicidal effect on H: barnyard grass [5, 30]: 3 (Herbicidal rate of 40% or more and less than 70%); herbicidal effect on E: rice flat sedge [14, 30]: 0 (Herbicidal rate of 5% or less (almost no effect)); K: Italian ryegrass, herbicidal effect rating [24]: 0 (Herbicidal rate of 5% or less (almost no effect)); herbicidal effect on R: persian speedwell [25]: 5 (Herbicidal rate of 90% or more (almost completely withered)); F: southern crabgrass, herbicidal effect rating [26]: 1 (Herbicidal rate of 5% or more and less than 20%); P: chickweed, herbicidal effect rating [27]: 0 (Herbicidal rate of 5% or less (almost no effect)); herbicidal effect on F: southern crabgrass [28]: 0 (Herbicidal rate of 5% or less (almost no effect)); herbicidal effect on I: wild oat [29]: 0 (Herbicidal rate of 5% or less (almost no effect))
